Laboratory results reported in US9974301B2, “Fungicidal composition for controlling phytopathogenic diseases, comprising a mixture of the volatile compounds ethanol, 3-methylbutanol, isobutyl acetate, isoamyl acetate and alpha-bisabolol; and the use thereof for inhibiting the growth of the pathogenic fungus botrytis cinerea” (UNIVERSIDAD DE LA FRONTERA, priority 2013, dated 2018).

The compounds below were run on Botrytis cinerea (assay: Inhibition of growth of Botrytis cinerea by artificial VOC mixture and pure compounds, bi compartmentalized Petri dishes (vapour exposure)). Conditions: pure compounds at their relative proportion of 0.70 μl/mL mixture (ethanol 0.11, isobutyl acetate 0.14, isoamyl acetate 0.13, α-bisabolol 0.10 μl/mL head space); after four days.
Assay type: cell-based
Method: For this, bi compartmentalized Petri dishes (94×16 mm) (Greiner, Germany) coated with culture medium were used, leaving a head space of 60 mL. One compartment was inoculated with mycelium (3 mm radius disk) of the saprophytic fungus (S. commune). The other compartment was inoculated with fresh mycelium of B. cinerea. In this bioassay there was no physical contact between the two fungi. The control treatment consisted of placing the mycelium of B. cinerea in only one of the compartments. All experimental units (Petri dishes) were covered and sealed with Parafilm M®, and incubated at 25° C. in the dark until the growth of any fungi (treatment and control) reached the edge of the central wall of the Petri dish. The mycelial growth was measured using a magnifying glass (Japan Optical), and data were expressed as percent of inhibition relative to control. Each treatment was repeated 10 times.
The inhibitory power of pure compounds and of a mixture based on their percent ratio were assessed. The methodology was similar to that detailed above to assess the antifungal activity of saprophytic fungus. The minimum inhibitory concentration (MIC) and lethal dose 50% (LD50) were calculated by interpolation according to the polynomial equation (Y=−194.565812×2+318.001954×−25.561441; r2=0.982) (See FIG. 2).
6 formulations were tested at laboratory level: […]
Formulation 2: 0.11 μl ethanol per 1 mL of head space volume (airspace).
Formulation 3: 0.14 μl of isobutyl acetate per 1 mL of head space volume (airspace).
Formulation 4: 0.13 μl of isoamyl acetate per 1 mL of head space volume (airspace).
Formulation 5: 0.10 μl of α-bisabolol per 1 mL of head space volume (airspace).
The effect of each formulation for inhibiting the growth of B. cinerea was tested using bi compartmentalized dishes, according to the above methodology.

Compound | percent of inhibition of Botrytis cinerea growth
CC(=O)OCCC(C)C [isoamyl acetate] | 77%
CC(=O)OCC(C)C [isobutyl acetate] | 47%
α-bisabolol | did not inhibit
